Assay results taken from the supplement of paper PMC10307832.

Columns and labels:
Assay in all cases: relative viability (nuclei count vs DMSO), 5 days (fraction); higher = more cells survive
[1] = compound: CC[C@H](C)N1C=C(C2=C(C=C(C=C21)C3=CN=C(C=C3)N4CCNCC4)C(=O)NCC5=C(C=C(NC5=O)C)C)C [GSK126] + O=C(CCCCCCC(=O)Nc1ccccc1)NO [Vorinostat] (partner 1 µM)
Summary of the method: (§1)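 Lung cancer cell lines, seeded in 1536-well plates, were treated the following day by pin tool with a single drug or with five library-drug doses (not always all listed) in √10 steps on top of a fixed anchor-drug dose. Cells were fixed and nuclei stained in one step after 5 days, and nuclei were counted. Relative viability is the nuclei count for treated wells divided by that for vehicle wells, reported as medians of duplicate plates.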

[2] = compound: C1CC(C1)(C(=O)O)C(=O)O.[NH2-].[NH2-].[Pt+2] [Carboplatin] + CCNC(=O)c1noc(-c2cc(C(C)C)c(O)cc2O)c1-c1ccc(CN2CCOCC2)cc1 [Luminespib] (partner 0.01 µM)
Summary of the method: as §1

[3] = compound: NS(=O)(=O)OC[C@@H]1C[C@@H](n2ccc3c(N[C@H]4CCc5ccccc54)ncnc32)C[C@@H]1O [MLN4924] + O=C(CCCCCCC(=O)Nc1ccccc1)NO [Vorinostat] (partner 1 µM)
Summary of the method: as §1

[4] = compound: NS(=O)(=O)OC[C@@H]1C[C@@H](n2ccc3c(N[C@H]4CCc5ccccc54)ncnc32)C[C@@H]1O [MLN4924] + CS(=O)(=O)N1CCN(Cc2cc3nc(-c4cccc5[nH]ncc45)nc(N4CCOCC4)c3s2)CC1 [Pictilisib] (partner 1 µM)
Summary of the method: as §1

Cell Line | relative viability ([1]; first compound 0.08 µM) | relative viability ([1]; first compound 0.253 µM) | relative viability ([1]; first compound 0.8 µM) | relative viability ([1]; first compound 2.53 µM) | relative viability ([1]; first compound 8 µM) | relative viability ([2]; first compound 0.08 µM) | relative viability ([2]; first compound 0.253 µM) | relative viability ([2]; first compound 0.8 µM) | relative viability ([2]; first compound 2.53 µM) | relative viability ([2]; first compound 8 µM) | relative viability ([3]; first compound 0.04 µM) | relative viability ([3]; first compound 0.1265 µM) | relative viability ([3]; first compound 0.4 µM) | relative viability ([3]; first compound 1.265 µM) | relative viability ([3]; first compound 4 µM) | relative viability ([4]; first compound 0.04 µM) | relative viability ([4]; first compound 0.1265 µM) | relative viability ([4]; first compound 0.4 µM) | relative viability ([4]; first compound 1.265 µM) | relative viability ([4]; first compound 4 µM)
NCI-H650 | 0.482 | 0.412 | 0.411 | 0.403 | 0.487 | 0.757 | 0.904 | 0.655 | 0.548 | 0.327 | 0.446 | 0.306 | 0.169 | 0.126 | 0.143 | 0.79 | 0.508 | 0.335 | 0.208 | 0.214
NCI-H661 | 0.779 | 0.746 | 0.734 | 0.716 | 0.69 | 0.892 | 0.901 | 0.854 | 0.874 | 0.744 | 0.601 | 0.619 | 0.389 | 0.317 | 0.382 | 0.414 | 0.567 | 0.482 | 0.343 | 0.337
NCI-H727 | 1.45 | 1.16 | 1.28 | 1.1 | 1.19 | 0.377 | 0.3 | 0.432 | 0.24 | 0.312 | 1.17 | 0.847 | 0.819 | 0.477 | 0.451 | 0.4 | 0.311 | 0.268 | 0.291 | 0.244
NCI-H838 | 0.747 | 0.688 | 0.659 | 0.638 | 0.69 | 0.284 | 0.291 | 0.195 | 0.192 | 0.188 | 0.631 | 0.4 | 0.284 | 0.168 | 0.151 | 0.365 | 0.236 | 0.253 | 0.138 | 0.189
NCI-H1355 | 0.635 | 0.612 | 0.667 | 0.602 | 0.657 | 0.826 | 0.814 | 0.765 | 0.588 | 0.537 | 0.592 | 0.629 | 0.496 | 0.236 | 0.227 | 0.332 | 0.421 | 0.273 | 0.182 | 0.176
NCI-H1395 | 0.655 | 0.731 | 0.715 | 0.855 | 0.743 | 0.864 | 0.543 | 0.731 | 0.458 | 0.331 | 0.556 | 0.766 | 0.523 | 0.341 | 0.361 | 0.626 | 0.969 | 0.425 | 0.313 | 0.339
NCI-H1437 | 0.902 | 0.885 | 0.774 | 0.77 | 0.763 | 1.14 | 1.14 | 0.994 | 1.03 | 0.97 | 0.769 | 0.621 | 0.385 | 0.229 | 0.193 | 0.423 | 0.409 | 0.355 | 0.0891 | 0.081
NCI-H1650 | 0.678 | 0.546 | 0.605 | 0.431 | 0.681 | 0.212 | 0.217 | 0.189 | 0.215 | 0.196 | 0.411 | 0.352 | 0.22 | 0.109 | 0.176 | 0.373 | 0.245 | 0.182 | 0.124 | 0.183
